Assays:
Assay type in all cases: in vivo
Chenopodium album = assay: Test Example 5: herbicidal effect by foliage application, plastic box (symbol O); conditions: 320 g/ha, 3 weeks after application
Method in brief: (§1)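 Sowing in sterilized diluvial soil, 14 days' greenhouse growth at 25° C. to 30° C., then uniform small-sprayer foliar application of aqueous emulsion dilution; plants scored three weeks afterwards.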

rapeseed = assay: Test Example 4: effect on crop by soil treatment (symbol g); conditions: application herbicide amount 320 g/ha
Method in brief: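 Steps: fill box with sterilized diluvial soil; sow seed spot-like; cover with ~1.5 cm soil; grow in greenhouse (25° C. to 30° C.).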

Abutilon theophrasti = assay: Test Example 4: herbicidal effect by soil treatment (symbol M); conditions: application herbicide amount 320 g/ha
Method in brief: (§2)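 Seeds were sown in sterilized diluvial soil, covered with about 1.5 cm of soil, and the soil surface was sprayed with a water-diluted emulsion of the compound at a predetermined rate. Plants grew in a greenhouse at 25° C. to 30° C.; effects were scored visually 3 weeks after application.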

[1] = test system: Echinochloa oryzacola Vasing.; assay: Test Example 2: herbicidal activity, application during weed generation in submerged conditions (symbol A); conditions: Table 23; application herbicide amount 320 g/ha; grade 0-5 by criteria of Test Example 1
Method in brief: (§3)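 Compound was applied as a water-diluted emulsion into the standing water of flooded pots (4 cm) once co-sown weeds reached one to two leaves. Greenhouse temperature was 25° C. to 30° C., soil was alluvial, and each species was rated visually after 3 weeks.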

Apera spica-venti = assay: Test Example 4: herbicidal effect by soil treatment (symbol L); conditions: application herbicide amount 320 g/ha
Method in brief: as §2

Lolium multiflorum Lam. = assay: Test Example 4: herbicidal effect by soil treatment (symbol K); conditions: application herbicide amount 320 g/ha
Method in brief: as §2

Scirpus juncoides = assay: Test Example 2: herbicidal activity, application during weed generation in submerged conditions (symbol B); conditions: Table 23; application herbicide amount 320 g/ha; grade 0-5 by criteria of Test Example 1
Method in brief: as §3

Avena fatua = assay: Test Example 5: herbicidal effect by foliage application, plastic box (symbol I); conditions: 320 g/ha, 3 weeks after application
Method in brief: as §1

Digitaria ciliaris [2] = assay: Test Example 4: herbicidal effect by soil treatment (symbol F); conditions: application herbicide amount 320 g/ha
Method in brief: as §2

rice plant = assay: Test Example 5: effect on crop by foliage application, plastic box (symbol b); conditions: 320 g/ha, 3 weeks after application
Method in brief: (§4)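 Foliage-application test plants come from spot sowing in sterilized diluvial soil under a soil layer of about 1.5 cm, grown at 25° C. to 30° C. in a greenhouse.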

[3] = test system: Echinochloa crus-galli var. crus-galli; assay: Test Example 4: herbicidal effect by soil treatment (symbol H); conditions: application herbicide amount 320 g/ha
Method in brief: as §2

[4] = test system: Echinochloa crus-galli var. crus-galli; assay: Test Example 3: herbicidal effect by foliage application, Wagner pot (symbol H); conditions: application herbicide amount 320 g/ha
Method in brief: (§5)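 In a shallow-flooded alluvial soil system held at 25–30 °C, plants including rice grew for 14 days and were then sprayed over the foliage with emulsion diluted to a fixed herbicide amount. Visual rating followed at 3 weeks.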

Veronica persica = assay: Test Example 5: herbicidal effect by foliage application, plastic box (symbol R); conditions: 320 g/ha, 3 weeks after application
Method in brief: as §1

Digitaria ciliaris [5] = assay: Test Example 5: herbicidal effect by foliage application, plastic box (symbol F); conditions: 320 g/ha, 3 weeks after application
Method in brief: as §1

wheat = assay: Test Example 5: effect on crop by foliage application, plastic box (symbol e); conditions: 320 g/ha, 3 weeks after application
Method in brief: as §4

Amaranthus retroflexus [6] = assay: Test Example 4: herbicidal effect by soil treatment (symbol N); conditions: application herbicide amount 320 g/ha
Method in brief: as §2

Leptochloa chinensis = assay: Test Example 3: herbicidal effect by foliage application, Wagner pot (symbol D); conditions: application herbicide amount 320 g/ha
Method in brief: as §5

Amaranthus retroflexus [7] = assay: Test Example 5: herbicidal effect by foliage application, plastic box (symbol N); conditions: 320 g/ha, 3 weeks after application
Method in brief: as §1

beet = assay: Test Example 5: effect on crop by foliage application, plastic box (symbol f); conditions: 320 g/ha, 3 weeks after application
Method in brief: as §4

Stellaria media = assay: Test Example 5: herbicidal effect by foliage application, plastic box (symbol P); conditions: 320 g/ha, 3 weeks after application
Method in brief: as §1

Row | SMILES | O: Chenopodium album, herbicidal effect grade (Chenopodium album) | g: rapeseed, effect on crop grade (rapeseed) | M: Abutilon theophrasti, herbicidal effect grade (Abutilon theophrasti) | Herbicidal effect grade, A: Echinochloa oryzacola Vasing. [1] | L: Apera spica-venti, herbicidal effect grade (Apera spica-venti) | K: Lolium multiflorum Lam., herbicidal effect grade (Lolium multiflorum Lam.) | Herbicidal effect grade, B: Scirpus juncoides (Scirpus juncoides) | I: Avena fatua, herbicidal effect grade (Avena fatua) | F: Digitaria ciliaris, herbicidal effect grade (Digitaria ciliaris [2]) | b: directly sowed rice plant, effect on crop grade (rice plant) | H: Echinochloa crus-galli var. crus-galli, herbicidal effect grade [3] | herbicidal effect on H (Echinochloa crus-galli var. crus-galli), grade 0-5 [4] | R: Veronica persica, herbicidal effect grade (Veronica persica) | F: Digitaria ciliaris, herbicidal effect grade (Digitaria ciliaris [5]) | e: wheat, effect on crop grade (wheat) | N: Amaranthus retroflexus, herbicidal effect grade (Amaranthus retroflexus [6]) | herbicidal effect on D (Leptochloa chinensis), grade 0-5 (Leptochloa chinensis) | N: Amaranthus retroflexus, herbicidal effect grade (Amaranthus retroflexus [7]) | g (rapeseed) effect on crop grade (rapeseed) | f: beet, effect on crop grade (beet) | other results
1 | CON=C(C)CC1CC(O)=C(c2c(C)cc(-n3cc(Cl)cn3)cc2C)C1=O (mixture of isomers) [6-004] | 3 (Herbicidal ratio of 40% or higher and lower than 70%) | 4 (Herbicidal ratio of 70% or higher and lower than 90%) | 0 (Herbicidal ratio of 5% or lower (almost no effect)) | 5 (Herbicidal ratio of 90% or more (almost completely withered)) | 5 (Herbicidal ratio of 90% or more (almost completely withered)) | 5 (Herbicidal ratio of 90% or more (almost completely withered)) | 4 (Herbicidal ratio of 70% or higher and lower than 90%) | 4 (Herbicidal ratio of 70% or higher and lower than 90%) | 5 (Herbicidal ratio of 90% or more (almost completely withered)) | 5 (Herbicidal ratio of 90% or more (almost completely withered)) | 5 (Herbicidal ratio of 90% or more (almost completely withered)) | 5 (Herbicidal ratio of 90% or more (almost completely withered)) | 3 (Herbicidal ratio of 40% or higher and lower than 70%) | 5 (Herbicidal ratio of 90% or more (almost completely withered)) | 0 (Herbicidal ratio of 5% or lower (almost no effect)) | 4 (Herbicidal ratio of 70% or higher and lower than 90%) | 5 (Herbicidal ratio of 90% or more (almost completely withered)) | 2 (Herbicidal ratio of 20% or higher and lower than 40%) |  |  | 
2 | CON=C(C)CC1CC(OCCSC)=C(c2c(C)cc(C)cc2C)C1=O (stereo not drawn) [1-011] | 0 (Herbicidal ratio of 5% or lower (almost no effect)) |  |  | 0 (Herbicidal ratio of 5% or lower (almost no effect)) |  |  | 0 (Herbicidal ratio of 5% or lower (almost no effect)) | 0 (Herbicidal ratio of 5% or lower (almost no effect)) |  | 2 (Herbicidal ratio of 20% or higher and lower than 40%) |  | 0 (Herbicidal ratio of 5% or lower (almost no effect)) | 0 (Herbicidal ratio of 5% or lower (almost no effect)) | 3 (Herbicidal ratio of 40% or higher and lower than 70%) | 0 (Herbicidal ratio of 5% or lower (almost no effect)) |  | 5 (Herbicidal ratio of 90% or more (almost completely withered)) | 0 (Herbicidal ratio of 5% or lower (almost no effect)) | 0 (Herbicidal ratio of 5% or lower (almost no effect)) | 0 (Herbicidal ratio of 5% or lower (almost no effect)) | M (Abutilon theophrasti) herbicidal effect grade (Abutilon theophrasti): 0 (Herbicidal ratio of 5% or lower (almost no effect)); L (Apera spica-venti) herbicidal effect grade (Apera spica-venti): 0 (Herbicidal ratio of 5% or lower (almost no effect)); K (Lolium multiflorum Lam.) herbicidal effect grade (Lolium multiflorum Lam.): 0 (Herbicidal ratio of 5% or lower (almost no effect)); F (Digitaria ciliaris) herbicidal effect grade (Digitaria ciliaris [2]): 0 (Herbicidal ratio of 5% or lower (almost no effect)); H (Echinochloa crus-galli var. crus-galli) herbicidal effect grade [3]: 0 (Herbicidal ratio of 5% or lower (almost no effect)); N (Amaranthus retroflexus) herbicidal effect grade (Amaranthus retroflexus [6]): 0 (Herbicidal ratio of 5% or lower (almost no effect))
3 | CON=C(C)CC1CC(OCC(=O)OC)=C(c2c(C)cc(C)cc2C)C1=O (stereo not drawn) [1-012] | 0 (Herbicidal ratio of 5% or lower (almost no effect)) |  |  | 0 (Herbicidal ratio of 5% or lower (almost no effect)) |  |  | 0 (Herbicidal ratio of 5% or lower (almost no effect)) | 0 (Herbicidal ratio of 5% or lower (almost no effect)) |  | 0 (Herbicidal ratio of 5% or lower (almost no effect)) |  | 0 (Herbicidal ratio of 5% or lower (almost no effect)) | 0 (Herbicidal ratio of 5% or lower (almost no effect)) | 0 (Herbicidal ratio of 5% or lower (almost no effect)) | 0 (Herbicidal ratio of 5% or lower (almost no effect)) |  | 0 (Herbicidal ratio of 5% or lower (almost no effect)) | 0 (Herbicidal ratio of 5% or lower (almost no effect)) | 0 (Herbicidal ratio of 5% or lower (almost no effect)) | 0 (Herbicidal ratio of 5% or lower (almost no effect)) | M (Abutilon theophrasti) herbicidal effect grade (Abutilon theophrasti): 0 (Herbicidal ratio of 5% or lower (almost no effect)); L (Apera spica-venti) herbicidal effect grade (Apera spica-venti): 0 (Herbicidal ratio of 5% or lower (almost no effect)); K (Lolium multiflorum Lam.) herbicidal effect grade (Lolium multiflorum Lam.): 0 (Herbicidal ratio of 5% or lower (almost no effect)); F (Digitaria ciliaris) herbicidal effect grade (Digitaria ciliaris [2]): 0 (Herbicidal ratio of 5% or lower (almost no effect)); H (Echinochloa crus-galli var. crus-galli) herbicidal effect grade [3]: 0 (Herbicidal ratio of 5% or lower (almost no effect)); N (Amaranthus retroflexus) herbicidal effect grade (Amaranthus retroflexus [6]): 0 (Herbicidal ratio of 5% or lower (almost no effect))
4 | Cc1cc(C)c(C2=C(O)CC(CC(=O)C3CC3)C2=O)c(C)c1 (stereo not drawn) [2-017] |  | 5 (Herbicidal ratio of 90% or more (almost completely withered)) | 4 (Herbicidal ratio of 70% or higher and lower than 90%) | 5 (Herbicidal ratio of 90% or more (almost completely withered)) | 3 (Herbicidal ratio of 40% or higher and lower than 70%) | 5 (Herbicidal ratio of 90% or more (almost completely withered)) | 4 (Herbicidal ratio of 70% or higher and lower than 90%) | 4 (Herbicidal ratio of 70% or higher and lower than 90%) | 5 (Herbicidal ratio of 90% or more (almost completely withered)) | 5 (Herbicidal ratio of 90% or more (almost completely withered)) | 5 (Herbicidal ratio of 90% or more (almost completely withered)) | 5 (Herbicidal ratio of 90% or more (almost completely withered)) | 0 (Herbicidal ratio of 5% or lower (almost no effect)) | 5 (Herbicidal ratio of 90% or more (almost completely withered)) | 0 (Herbicidal ratio of 5% or lower (almost no effect)) | 0 (Herbicidal ratio of 5% or lower (almost no effect)) | 5 (Herbicidal ratio of 90% or more (almost completely withered)) | 0 (Herbicidal ratio of 5% or lower (almost no effect)) |  | 0 (Herbicidal ratio of 5% or lower (almost no effect)) | P: Stellaria media, herbicidal effect grade (Stellaria media): 0 (Herbicidal ratio of 5% or lower (almost no effect))

From patent US11000033B2, “Ketone or oxime compound, and herbicide” (NISSAN CHEMICAL CORPORATION, priority 2014, dated 2021)
